Assay results reported in US20050245738A1, “Stable bioavailable crystalline form or cefdinir and a process for the preparation thereof” (LUPIN LTD, priority 2004, published 2005).

Assays:
[1] = Accelerated storage stability of cefdinir, Aluminum pouch, 40 ± 2° C., Rh 75 ± 5%; format: physicochemical
[2] = Dissolution rate in 0.07 N Hydrochloric acid; format: physicochemical
[3] = accelerated stability tests; cited from earlier work
[4] = 0.07 N Hydrochloric acid, cited from earlier work
[5] = After 30 days at 40 ± 2° C., Rh 75 ± 5%
[6] = After 60 days at 40 ± 2° C., Rh 75 ± 5%
[7] = After 180 days at 40 ± 2° C., Rh 75 ± 5%

SMILES | IDR: Intrinsic Dissolution Rate [2] | Dissolution Profile ([2]; 15 Mins) | Dissolution Profile ([2]; 30 Mins) | Dissolution Profile ([2]; 45 Mins) | Dissolution Profile ([2]; 60 Mins) | Dissolution Profile ([2]; 75 Mins) | Dissolution Profile ([2]; 90 Mins) | Dissolution Profile ([2]; 105 Mins) | Dissolution Profile ([2]; 120 Mins) | other results
C=CC1=C(C(=O)O)N2C(=O)[C@@H](NC(=O)/C(=N\O)c3csc(N)n3)[C@H]2SC1 [(Z)-7-[2-(2-amino-4-thiazolyl)-2-hydroxyiminoacetamido]-3-vinyl-3-cephem-4-carboxylic acid] | 0.1831 mg/cm^2/min | 4.15 mg/cm^2 | 8.26 mg/cm^2 | 10.31 mg/cm^2 | 14.66 mg/cm^2 | 16.29 mg/cm^2 | 19.47 mg/cm^2 | 22.17 mg/cm^2 | 23.01 mg/cm^2 | thermal stability ([1]; 40° C. (75% Rh)): excellent thermal stability; Assay by HPLC (% on Dry Basis) [1, 5]: 97.92 % on Dry Basis; Water Content (%) [1, 5]: 7.46%; pH (1% Aqueous suspension) [1, 5]: 3.46; Assay by HPLC (% on Dry Basis) [1, 6]: 97.38 % on Dry Basis; Water Content (%) [1, 6]: 7.27%; pH (1% Aqueous suspension) [1, 6]: 3.45; Assay by HPLC (% on Dry Basis) [1, 7]: 96.65 % on Dry Basis; Water Content (%) [1, 7]: 7.60%; pH (1% Aqueous suspension) [1, 7]: 3.55; Assay by HPLC (% on Dry Basis) ([1]; Initial): 98.37 % on Dry Basis; Water Content (%) ([1]; Initial): 7.05%; pH (1% Aqueous suspension) ([1]; Initial): 3.40; dissolution rate compared with reference “Crystal A” and material of U.S. Application No. 2003/0204082 A [2]: superior
C=CC1=C(C(=O)O)N2C(=O)[C@@H](NC(=O)/C(=N\O)c3csc(N)n3)[C@H]2SC1 [Cefdinir Prepared as per the Method of Dobfar's US Applicati] [reference compound] | 0.1392 mg/cm^2/min | 4.59 mg/cm^2 | 6.01 mg/cm^2 | 8.70 mg/cm^2 | 10.42 mg/cm^2 | 12.23 mg/cm^2 | 14.94 mg/cm^2 | 16.79 mg/cm^2 | 19.02 mg/cm^2 | stability compared with reference “Crystal A” [3]: at least equal to that of the reference “Crystal A”; solubility compared with reference “Crystal A” ([4]; after the first hour): more soluble; dissolution rate compared with reference “Crystal A” ([4]; initially): initially slower
